Experimental data published in US5202339A, “Hydantoin derivatives” (Mochida Pharmaceutical Co., Ltd., priority 1987, dated 1993).

Columns and labels:
[1] = biological target: T1, bovine lens aldose reductase (Bos taurus, UniProt P16116); experiment: inhibitory activity on bovine lens aldose reductase (Experimental Example 2); format: biochemical; details: pH 6.2, 10 mM DL-glyceraldehyde, 0.16 mM NADPH
T1 construct: bovine lens aldose reductase preparation was used; from tissue; host or cells: bovine lens
Protocol: (§1) Assays were performed in 0.1M phosphate buffer (pH 6.2) containing 0.4M ammonium sulfate, 10 mM DL-glyceraldehyde, 0.16 mM nicotinamide adenine dinucleotide phosphate, reduced form (NADPH) and aldose reductase (0.010-0.016 units) in a total volume of 1.0 ml. To this mixture was added 10 μl of the solution of each hydantoin derivative to be tested, and the decrease in absorbance at 340 nm was measured with a spectrophotometer.

[2] = tested on: Streptozotocin-Diabetic Rats; experiment: Hypoglycemic Effects in Streptozotocin-Diabetic Rats (Experimental Example 4); format: in vivo, rat (male Wistar); details: Rattus norvegicus; STZ-diabetic rats, 100 mg/kg oral, 6 hrs after administration; read-out: Lowering rate of serum glucose (%)
Protocol: Diabetic rats were produced according to the method of Junod et al. (A. Junod et al., J. Clin. Invest., 48, 2129 (1969)). Briefly, male Wistar rats were given 26.5 mg/kg of streptozotocin (STZ) intravenously. Four days later, the rats with serum glucose levels of between 400 and 500 mg/dl were used. After being fasted for 4 hrs, groups of 5 diabetic rats were orally administered with the compounds of the present invention or gliclazide in a dose of 100 mg/kg. Blood sample were collected from the orbital vein before and 6 hrs after the administration. Serum glucose levels were determined by the enzymatic method with an autoanalyzer (Cobas Fara®, Roche).

[3] = biological target: T2, rat lens aldose reductase (Rattus norvegicus, UniProt P07943); experiment: inhibitory activity on rat lens aldose reductase (Experimental Example 1); format: biochemical; details: pH 6.2, 10 mM DL-glyceraldehyde, 0.16 mM NADPH
T2 construct: rat lens aldose reductase; from tissue; host or cells: rat lens
Protocol: as §1, with “The inhibitory activities of hydantoin derivatives on rat lens aldose reductase were measured according to the procedure of Inagaki et al. (K. Inagaki et al., Arch. Biochem. Biophys., 216, 337 (1982)) with slight modifications. Assays” for “Assays”
The concentrations of typical hydantoin derivatives of the present invention required to produce 50% inhibition are shown in table 1.

Row | Compound | IC50 [1] [nM] | inhibition in vivo at 100 mg/kg [2] [%] | IC50 [3] [nM]
1 | O=C1CN(S(=O)(=O)c2cc3ccc(Cl)cc3s2)C(=O)N1 [Compound 26, 1-(6-chlorobenzo[b]thiophen-2-yl-sulfonyl)hydantoin] | 270 | 33.1 | 
2 | Cc1cc2ccccc2cc1S(=O)(=O)N1CC(=O)NC1=O [Compound 12, 1-(3-methylnaphthalen-2-ylsulfonyl)hydantoin] |  |  | 140
3 | O=C1CN(S(=O)(=O)c2c(Cl)sc3ccccc23)C(=O)N1 [Compound 35, 1-(2-chlorobenzo[b]thiophen-3-yl-sulfonyl)hydantoin] | 300 | 14 | 
4 | O=C1CN(S(=O)(=O)c2nc3ccccc3s2)C(=O)N1 [Compound 22, 1-(benzothiazol-2-ylsulfonyl)hydantoin] | 340 | 15 | 
5 | O=C1CN(S(=O)(=O)c2ccc3cc(Cl)ccc3c2)C(=O)N1 [Compound 4, 1-(6-chloronaphthalen-2-ylsulfonyl)hydantoin] |  |  | 140
6 | O=C1CN(S(=O)(=O)c2cc3c(Cl)cc(Cl)cc3o2)C(=O)N1 [Compound 37, 1-(4,6-dichlorobenzo[b]furan-2-yl-sulfonyl)hydantoin] | 170 | 14.5 | 
7 | O=C1CN(S(=O)(=O)c2ccc3ccccc3c2Br)C(=O)N1 [Compound 8, 1-(1-bromonaphthalen-2-ylsulfonyl)hydantoin] |  |  | 94
8 | O=C1CN(S(=O)(=O)c2cc3cc(F)ccc3s2)C(=O)N1 [Compound 39, 1-(5-fluorobenzo[b]thiophen-2-yl-sulfonyl)hydantoin] | 320 | 16 | 
9 | O=C1CN(S(=O)(=O)c2ccc3cc(Br)ccc3c2)C(=O)N1 [Compound 10, 1-(6-bromonaphthalen-2-ylsulfonyl)hydantoin] |  |  | 170
10 | O=C1CN(S(=O)(=O)c2ccc3ccccc3c2)C(=O)N1 [Compound A, 1-(naphthalene-2-ylsulfonyl)hydantoin, reference compound] |  |  | 660
11 | O=C1CN(S(=O)(=O)c2nsc3ccccc23)C(=O)N1 [Compound 41, 1-(benzo[b]isothiazol-3-ylsulfonyl)hydantoin] | 470 | 23.6 | 
12 | O=C1CN(S(=O)(=O)c2cc3ccccc3cc2Cl)C(=O)N1 [Compound 2, 1-(3-chloronaphthalen-2-ylsulfonyl)hydantoin] |  |  | 160
13 | O=C1CN(S(=O)(=O)c2sc3c(F)cccc3c2Br)C(=O)N1 [Compound 34, 1-(3-bromo-7-fluorobenzo[b]thiophen-2-ylsulfonyl)hydantoin] | 85 | 13.2 | 
14 | O=C1CN(S(=O)(=O)c2ccc3ccc(Cl)cc3c2)C(=O)N1 [Compound 5, 1-(7-chloronaphthalen-2-ylsulfonyl)hydantoin] |  |  | 390
15 | O=C1CN(S(=O)(=O)c2cc3ccccc3s2)C(=O)N1 [Compound 16, 1-(benzo[b]thiophen-2-ylsulfonyl)hydantoin] | 390 | 33.5 | 
16 | O=C1CN(S(=O)(=O)c2ccc3c([N+](=O)[O-])cccc3c2)C(=O)N1 [Compound 11, 1-(5-nitronaphthalen-2-ylsulfonyl)hydantoin] |  |  | 100
17 | O=C1CN(S(=O)(=O)c2ccc3cccc(Cl)c3c2)C(=O)N1 [Compound 6, 1-(8-chloronaphthalen-2-ylsulfonyl)hydantoin] |  |  | 460
18 | O=C1CN(S(=O)(=O)c2oc3ccccc3c2I)C(=O)N1 [Compound 53, 1-(3-iodobenzo[b]furan-2-ylsulfonyl)hydantoin] |  | 19 | 
19 | Cc1ccc2ccc(S(=O)(=O)N3CC(=O)NC3=O)cc2c1 [Compound 14, 1-(7-methylnaphthalen-2-ylsulfonyl)hydantoin] |  |  | 350
20 | O=C1CN(S(=O)(=O)c2oc3c(F)cccc3c2Br)C(=O)N1 [Compound 49, 1-(3-bromo-7-fluorobenzo[b]furan-2-yl-sulfonyl)hydantoin] |  | 49.2 | 
